# Results reported in US5607967A, “Treatment of alzheimer's disease with 5-(tetradecyloxy)-2-furan carboxylic acid” (Merck & Co., Inc., priority 1994, dated 1997).
# Where “and” joins values, the source holds several entries; their conditions need not be identical. Equal values may be shown once. Entries after “also recorded” stand apart in the source; their conditions may differ.
# How the values were obtained:
# GR/NER chimeric receptor = assay: Activation of GR/NER in CV1 cells (luciferase)
# Method: The ligand dependent transcription assays were performed as described in Example 4, using CV1 cells in place of COS cells. The transfected CV1 cells were treated with dopamine, TOFA, or with a combination of TOFA and dopamine at the indicated concentrations and tested for luciferase activity.
# CV1 cells were co-transfected with the MMTV-Luciferase reporter gene (pJA358) and the GR/NER chimeric receptor as described in Example 4. The cells were treated with increasing amount of the dopamine D1 receptor antagonist SCH 23390 with or without 50 μM […] dopamine.
# [1] = tested on: MMTV-luciferase reporter gene; assay: Luciferase expression in cells transfected only with the MMTV-luciferase reporter gene; format: cell-based; details: no receptor transfected
# Method: Transient transfection of COS and CV1 cells was performed as described (Schmidt 1992). Cells were plated (1.5×10^5 in 1 mL) into 12 well dishes in phenol red-free medium supplemented with activated charcoal treated fetal calf serum. The next day 0.12 mL of DNA 10 μg/ml (5 μg receptor DNA and 5 μg reporter plasmid), as a calcium phosphate precipitate, was added to the cells. Ligands were added to the cells 30 minutes after transfection. The next day (18 hours), the cells were washed and fresh ligands added. Twenty-four hours later, cell extracts were prepared and assayed for luciferase enzyme activity using the luciferase assay system (Promega Madison, Wis.). Each transfection was performed in triplicate and the luciferase activity of each sample measured in duplicate using the AutoClinilumat (Berthold Nashua, N.H.).
# PC12 cells = assay: Neurite differentiation of PC12 cells; format: cell-based; details: for % Cells Bearing Neurites / Average length of neurites: 4 days, mean ±SEM
# Method: To further study the influence of TOFA on the nervous system, we tested the effect of TOFA on the differentiation of PC12 cells. PC12 cells were plated at a density of approximately 100-200/mm^2 on collagen coated plates or dishes in RPMI medium supplemented with 10% horse serum, 5% fetal calf serum, […] streptomycin, 50 U/mL penicillin in a water saturated atmosphere of 95% air and 5% CO2, at 37° C. overnight. Medium was replaced with fresh RPMI containing 1.5% serum, 100 ng/mL NGF and the indicated concentration of TOFA or an equivalent volume of vehicle (DMSO) giving a final concentration of 0.1% DMSO.
# At different time points during the treatment, cells were photographed or fixed with 10% formalin. Morphology was examined after four days of treatment with TOFA or vehicle (DMSO). The number of cells beating neurites and average length of neurites were determined with the aid of the Bioquant imaging system. […] However, as depicted in Table 6 below, NGF alone induced a 15% increase in the number of cells bearing neurites and these outgrowths reached a mean length of 20 μm. Treatment with NGF and TOFA increased the percentage of cells beating neurites to 78%. Maximal neurite generation is observed at a concentration of 10 μM TOFA.
# Cells were treated with vehicle (0.1% DMSO) or various concentrations of TOFA in the presence of 100 ng/mL NGF for 4 days, and then fixed with 10% formalin. At least eighty cells from eight wells were analyzed in each group. The results are shown as the mean ±SEM. ^a p<0.01, versus vehicle by Dunnetts test.
# [2] = tested on: Dopamine D2 receptor antagonist (Haloperidol) induced catalepsy; assay: Haloperidol induced catalepsy (Bar method); format: in vivo, rat; details: for Catalepsy Duration: TOFA 0.4 mg/kg S.C. pretreatment
# acetyl-CoA carboxylase = details: high doses, i.e. 0.15% of diet; cited from earlier work
smiles,measurement,setting,value
"CCCCCCCCCCCCCCOc1ccc(C(=O)O)o1 [TOFA, 5-(tetradecyloxy)-2-furan carboxylic acid]",Fold of stimulation GR/NER,GR/NER chimeric receptor; TOFA 10 μM with dopamine 100 μM,1.40 ± 0.05 fold
same,Fold of stimulation GR/NER,GR/NER chimeric receptor; TOFA 100 μM with dopamine 100 μM,1.60 ± 0.07 fold
same,Fold of stimulation GR/NER,"GR/NER chimeric receptor; TOFA 100 μM, no dopamine",3.70 ± 0.06 fold
same,"Expression of luciferase, MMTV-luciferase reporter gene only",[1],did not stimulate the expression of luciferase
same,% Cells Bearing Neurites,PC12 cells; 0.1 μM TOFA with 100 ng/mL NGF,14.27 ± 3.51%
same,Average length of neurites,PC12 cells; 0.1 μM TOFA with 100 ng/mL NGF,23.67 ± 2.86 μm
same,% Cells Bearing Neurites,PC12 cells; 1.0 μM TOFA with 100 ng/mL NGF,24.07 ± 3.06%
same,Average length of neurites,PC12 cells; 1.0 μM TOFA with 100 ng/mL NGF,28.63 ± 3.92 μm
same,% Cells Bearing Neurites,PC12 cells; 10 μM TOFA with 100 ng/mL NGF,78% and 78.39 ± 4.89%
same,Average length of neurites,PC12 cells; 10 μM TOFA with 100 ng/mL NGF,32.43 ± 2.38 μm
same,Concentration of maximal neurite generation,PC12 cells; with 100 ng/mL NGF,10 µM
same,Catalepsy Duration,[2]; 24 h later 0.1 mg/kg Haloperidol,28.9 ± 4.5 s
same,Catalepsy Duration,[2]; no challenge,0 s
same,Effect of TOFA pretreatment on Haloperidol-induced catalepsy,"[2]; TOFA 0.4 mg/kg S.C., 24 h before 0.1 mg/kg Haloperidol",did not significantly affect; also recorded: unaffected
same,Fatty acid synthesis in vivo,acetyl-CoA carboxylase,inhibit fatty acid synthesis
